The values below come from patent US6242445A, “Benzimidazole derivative” (Kureha Chemical Industry Co., Ltd., priority 1998, dated 2001).

For data set [1] the following is noted: J. Clin. Pharmacol., 30: 155 to 158, 1990; cited from earlier work.
In data set [2] the target is T1, angiotensin II receptor subtype 1 (AT1) (Oryctolagus cuniculus, UniProt P34976).
T1 construct: from adrenal glands in rabbits; from tissue; host or cells: adrenal glands of rabbits
T1 sequence (P34976 1-359): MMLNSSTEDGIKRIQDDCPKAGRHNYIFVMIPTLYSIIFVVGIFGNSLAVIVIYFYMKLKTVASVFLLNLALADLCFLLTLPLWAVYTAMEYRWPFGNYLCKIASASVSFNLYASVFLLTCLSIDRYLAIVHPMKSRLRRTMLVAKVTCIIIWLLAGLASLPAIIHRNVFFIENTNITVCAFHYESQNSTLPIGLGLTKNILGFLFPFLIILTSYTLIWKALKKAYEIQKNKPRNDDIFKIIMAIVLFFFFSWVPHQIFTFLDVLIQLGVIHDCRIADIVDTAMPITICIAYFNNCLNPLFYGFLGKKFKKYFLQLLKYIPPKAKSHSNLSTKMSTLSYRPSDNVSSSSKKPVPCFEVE
Kind of data set: Binding assay, angiotensin II receptor subtype 1 (AT1). Also on record: species or system rabbits; inhibition: dose or concentration left out as unconfirmed. The following applies: 3 h. The procedure: (§1) In this Example, a binding assay was carried out. That is, the affinity to the angiotensin II receptor subtype 1 orsubtype 2 was evaluated in accordance with the method described in Biochem. Pharmacol., 33, 4057-4062 (1984).
(§2) Specifically, the measurement of the total binding in the presence of each drug was performed as follows:
(§3) A mixture (final volume=0.25 ml) of a drug in a given concentration (the drug was dissolved in DMSO, and diluted to a double volume with a buffer attached to a drug discovery system to prepare a sample for the assay; 0.025 ml), a tracer (0.025 ml), and receptors (0.2 ml) was incubated [in the case of the angiotensin II receptor subtype 1 (AT1), at room temperature for 3 hours, and in the case of the subtype 2 (AT2), at 37° C. for 1 hour]. Then, the reaction mixture was filtered with suction (a GF/C filter was used in AT1, and a GF/B filter was used in AT2). The filter papers after filtration with suction (the tracer bound to the receptors) were counted by a γ-well counter (ARC-500, Aloka). The non-specific bindings were measured by repeating the above method, except that a large excess amount of a displacer was added. The specific binding of the drug in the given concentration was calculated by subtracting the non-specific binding from the total binding, respectively.
tracer: ^3 H-angiotensin II

The target of data set [3] is T2, angiotensin II receptor subtype 2 (AT2) (Bos taurus, UniProt G5E6F7).
T2 construct: from cerebellar cortex in bovine; from tissue; host or cells: cerebellar cortex, bovine
T2 sequence (G5E6F7 1-362): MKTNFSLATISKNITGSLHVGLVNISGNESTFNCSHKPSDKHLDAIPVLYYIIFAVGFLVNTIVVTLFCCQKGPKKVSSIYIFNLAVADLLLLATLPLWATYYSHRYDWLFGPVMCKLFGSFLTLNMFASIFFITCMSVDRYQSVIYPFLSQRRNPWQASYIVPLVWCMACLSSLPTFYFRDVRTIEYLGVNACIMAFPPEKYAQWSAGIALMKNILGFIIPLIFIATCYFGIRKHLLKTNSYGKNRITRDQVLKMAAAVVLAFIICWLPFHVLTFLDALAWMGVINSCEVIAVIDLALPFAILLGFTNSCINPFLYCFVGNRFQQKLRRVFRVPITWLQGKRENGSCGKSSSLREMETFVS
Kind of data set: Binding assay, angiotensin II receptor subtype 2 (AT2). Also on record: species or system bovine; dose or concentration left out as unconfirmed. The following applies: 1 h; tracer 125I-Tyr4-angiotensin II. The procedure:
as §1, §2, §3
In AT1 and AT2, the percentages found to inhibit the bindings of radioactive ligands (tracer) to receptors by the drugs to be tested (IC50 value of concentration to show 50% inhibition, […]) were measured, using the drugs to be tested and control drugs in the given concentration.
receptor: from cerebellar cortex in bovine
tracer: ^125 I-Tyr^4 -angiotensin II
control drug: angiotensin II (human)
(displacer): angiotensin II (human)

In a further data set the test system is ICR female mice. In words: Acute toxicity (single oral administration). It is filed as in vivo. The following applies: 500 mg/kg single oral; deaths observed for 6 days. The protocol:
Acute toxicity was evaluated in this Example. As a compound to be examined, 2-ethoxy-1-[[4'-(2"-N,N-dimethylamino-ethoxycarbonyl)phenyl]methyl]-1H-benzimidazole-6-carboxylic acid morpholide (Compound No. 13) prepared in Example 6 was used.
Five-week-old ICR female mice (5 mice per group) were bredfor acclimation for a week. Then, Compound No. 13 was dissolved or suspended in 0.5% methylcellulose aqueous solution, and orally administered to the mice in a single dosage (500 mg/kg). […] Further, as to Compound No. 55, Compound No. 57, Compound No. 59, and Compound No. 65 prepared in Examples 26, 28, 31, and 23, respectively, acute toxicity was also evaluated.

Regarding `C[C@H](CS)C(=O)N1CCC[C@H]1C(=O)O` [Captopril], in data set [1], the Blood pressure result is reported as “the blood pressure is lowered” and the “progress of the kidney diseases” value is recorded as “the progress of the kidney diseases is ameliorated”.

As for `CCCOc1nc2ccc(C(=O)N3CCOCC3)cc2n1Cc1ccc(C(=O)O)cc1` [Compound No. 3, 2-n-propoxy-1-[(4'-carboxyphenyl)methyl]-1H-benzimidazole-6-carboxylic acid morpholide], the results for the inhibition in data set [2] and in data set [3] were 45% and 0%, respectively.

For `CCOc1nc2ccc(C(=O)N3CCCCC3)cc2n1Cc1ccc(C(=O)OCCN(C)C)cc1` [Compound No. 55, 2-ethoxy-1-[[4'-(2"-N,N-dimethylaminoethoxycarbonyl)phenyl]methyl]-1H-benzimidazole-6-carboxylic acid piperidinamide], the “Number of deaths/number of survivals” value in the data set on ICR female mice is on record as 0/5.

`CCOc1nc2ccc(C(=O)N3CCCCC3)cc2n1Cc1ccc(C(=O)O)cc1` [Compound No. 5, 2-ethoxy-1-[(4'-carboxyphenyl)methyl]-1H-benzimidazole-6-carboxylic acid piperidinamide]: the inhibition in data set [2] was determined as 50%; in data set [3], 0%.

Regarding `CCOC(=O)[C@H](CCc1ccccc1)N[C@@H](C)C(=O)N1CCC[C@H]1C(=O)O` [Enalapril], in data set [1], the Blood pressure entry was “the blood pressure is lowered” and the “progress of the kidney diseases” value is recorded as “the progress of the kidney diseases is ameliorated”.

As to `CCCCOc1nc2ccc(C(=O)N3CCOCC3)cc2n1Cc1ccc(C(=O)O)cc1` [Compound No. 4], the inhibition in data set [2] is 45%; in data set [3], 0%.

With `CCOc1nc2ccc(C(=O)N3CCCCCC3)cc2n1Cc1ccc(C(=O)OCCN(C)C)cc1` [Compound No. 59, 2-ethoxy-1-[[4'-(2"-N,N-dimethylaminoethoxycarbonyl)phenyl]methyl]-1H-benzimidazole-6-carboxylic acid perhydroazepinamide], the “Number of deaths/number of survivals” value in the data set with ICR female mice is reported as 0/5.

With `CCOc1nc2ccc(C(=O)N3CCCC3)cc2n1Cc1ccc(C(=O)O)cc1` [Compound No. 6, 2-ethoxy-1-[(4'-carboxyphenyl)methyl]-1H-benzimidazole-6-carboxylic acid pyrrolidinamide], the inhibition came to 50% in data set [2] and 0% in data set [3].

On to `CCOc1nc2ccc(C(=O)N3CCOCC3)cc2n1Cc1ccc(C(=O)O)cc1` [Compound No. 1, 2-ethoxy-1-[(4'-carboxyphenyl)methyl]-1H-benzimidazole-6-carboxylic acid morpholide], for which the values for the inhibition in data set [2] and in data set [3] were 45% and 0%, respectively.

Consider `CCOc1nc2ccc(C(=O)N3CCCC3)cc2n1Cc1ccc(C(=O)OCCN(C)C)cc1` [Compound No. 65, 2-ethoxy-1-[[4'-[2"-(dimethylamino)-ethoxycarbonyl]phenyl]methyl]-1H-benzimidazole-6-carboxylic acid pyrrolidinamide], for which, in the data set on ICR female mice, the “Number of deaths/number of survivals” value is 0/5.

As for `CCOc1nc2ccc(C(=O)N3CCOCC3)cc2n1Cc1ccc(O)cc1` [compound 2], the inhibition in data set [2] and in data set [3] was 0% throughout.

Broadly, the inhibition is how much of the control response was suppressed.
